Laboratory results reported in patent US11789029B2, “Temporal traumatic brain injury biomarkers and methods of use thereof” (ARIZONA BOARD OF REGENTS ON BEHALF OF ARIZONA STATE …, priority 2019, dated 2023).
“Also recorded” adds a separate entry of the source. Blank lines part the entries; values can stand above or below the sequence they belong to. No end group written: not given here. bromoacetamide scaffold = not defined here

What was measured:
CCI injury sections = test: Immunohistochemistry of biotinylated HCDR3 constructs on CCI injury sections; type: binding, mice; conditions: for bioreactivity of control HCDR3 constructs on injured neural tissue: injured tissue at 1 or 7 days post-injury; for bioreactivity of chronic injury targeting HCDR3 constructs: 21 dpi tissue sections, 5 μM construct, Triton-X permeabilization
Experimental: Mice were subject to CCI or sham (n=3 per group/sex) as described previously and perfused with 0.1 M phosphate buffer and 4% paraformaldehyde at specified timepoints. Brains were fixed overnight in 4% paraformaldehyde at 4° C. followed by immersion in 15% sucrose and then 30% sucrose. Brains were flash frozen on dry ice in optimal cutting temperature medium and stored at −80° C. Samples were sectioned coronally at 20 μm thickness.
Tissue sections were incubated with excess streptavidin and biotin to block endogenous biotin using an Endogenous Biotin blocking kit (Thermo Fisher Scientific). After permeabilization with either 0.2% Triton-X 100 or Tween-20, 5 μM of biotinylated HCDR3-construct was incubated on tissue overnight at 4° C. Simultaneously, sections that served as controls were incubated with control HCDR3-construct or 1×PBS. Tissue sections were washed in 1×PBS and incubated with Alexa Fluor 555 streptavidin at room temperature for 2 hours, followed by 1×PBS washes and DAPI incubation for 5 minutes. Slides were imaged using fluorescence microscopy with Leica software.
For NGS analysis, raw counts were first normalized to reads per million (RPM) to account for library differences. A normalized z-score was then used as a threshold to identify dAbs that were highly represented and specific to their distinct injury timepoint. Selected dAbs were then screened for enrichment factor and individual frequency. Fluorescence percentage per area was conducted with ordinary one way ANOVA followed by Dunnett's test for multiple comparisons. Statistical significance was determined as p<0.05. Identified proteins that met the false discovery rate (FDR) threshold of <0.01 were used in all ontological assessments to categorize biological processes and candidate pathways.

tissue lysates = test: Immunoprecipitation-mass spectrometry with HCDR3 constructs as capture antibodies; type: binding, Mus musculus; conditions: A2 with 1 dpi tissue lysates, SA1 with 7 dpi tissue lysates
Excerpt: (§1) CCI and sham surgeries were completed as described previously. Mice were sacrificed at 1 d, 7 d, or 21 d post-injury (n=3/group) via transcardial perfusion with phosphate buffer, pH 7.4. The ipsilateral hemisphere of the brain was immediately dissected and homogenized in chilled lysis buffer (1×PBS, 1% Triton, protease inhibitor cocktail). Protein concentration of the homogenates was quantified with the Pierce BCA Protein Assay Kit (Thermo Fisher).
(§2) Streptavidin-coupled Dynabeads (Thermo Fisher) were washed with 1×PBST with 0.1% Tween and incubated with 1 mg/mL tissue lysate for 1 hour at room temperature. Pre-cleared lysate was collected after separation from magnetic beads and incubated with 450 pmol of HCDR3-construct rotating overnight at 4° C. to form the immune complex. The immune complex was then incubated with Streptavidin-coupled Dynabeads for 1 hour at room temperature before antigen was eluted from beads by heating sample at 95° C. with SDS PAGE running buffer. Samples were run on a pre-cast 12% SDS-PAGE gel (Bio-Rad) and bands were excised. Gel bands were processed by ASU Biodesign Mass Spectrometry Facility for digestion and protein identification with the Thermo Orbitrap Fusion Lumos (Thermo Fisher).
UniProt IDs of identified proteins were uploaded to the PANTHER classification system and searched against the Mus musculus reference database. […]

[1] = biological target: T1, Succinate--CoA ligase [ADP-forming] subunit beta, mitochondrial (Mus musculus, UniProt Q9Z2I9); test: Immunoprecipitation-mass spectrometry, candidate protein; type: binding
T1 construct: The ipsilateral hemisphere of the brain was immediately dissected and homogenized in chilled lysis buffer; from tissue; host or cells: ipsilateral brain hemisphere lysate of CCI or sham mice
Excerpt: as §1, §2
(§3) UniProt IDs of identified proteins were uploaded to the PANTHER classification system and searched against the Mus musculus reference database. Ontological assessments to characterize cellular localization, molecular function, biological processes, and pathways were conducted with PANTHER Overrepresentation test (Fisher's Exact test, p<0.05 using Benjamini Hochberg False Discovery Rate correction) with the GO Ontology database (released 2019-10-08).

[2] = biological target: T2, citrate synthase, mitochondrial (Mus musculus, UniProt Q9CZU6); test: as above; type: binding
T2 construct: The ipsilateral hemisphere of the brain was immediately dissected and homogenized in chilled lysis buffer; from tissue; host or cells: ipsilateral brain hemisphere lysate of CCI or sham mice
T2 sequence (Q9CZU6 28-464): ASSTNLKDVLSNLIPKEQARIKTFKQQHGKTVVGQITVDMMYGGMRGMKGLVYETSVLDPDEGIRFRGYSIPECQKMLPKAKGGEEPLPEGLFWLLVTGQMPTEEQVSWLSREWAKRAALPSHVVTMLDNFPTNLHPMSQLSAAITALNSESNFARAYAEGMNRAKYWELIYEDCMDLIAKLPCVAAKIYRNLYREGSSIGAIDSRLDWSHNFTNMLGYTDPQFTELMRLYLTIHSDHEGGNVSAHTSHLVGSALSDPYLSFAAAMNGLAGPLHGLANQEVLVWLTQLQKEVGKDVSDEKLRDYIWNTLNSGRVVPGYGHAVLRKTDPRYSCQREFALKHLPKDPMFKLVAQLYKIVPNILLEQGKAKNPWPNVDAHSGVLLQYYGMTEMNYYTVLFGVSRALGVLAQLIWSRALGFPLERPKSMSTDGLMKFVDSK
Excerpt: as §1, §2, §3

[3] = biological target: T3, Endoplasmic reticulum chaperone BiP (Mus musculus, UniProt P20029); test: as above; type: binding
T3 construct: The ipsilateral hemisphere of the brain was immediately dissected and homogenized in chilled lysis buffer; from tissue; host or cells: ipsilateral brain hemisphere lysate of CCI or sham mice
Excerpt: as §1, §2, §3

[4] = biological target: T4, Heat shock cognate 71 kDa protein (Mus musculus, UniProt P63017); test: as above; type: binding
T4 construct: The ipsilateral hemisphere of the brain was immediately dissected and homogenized in chilled lysis buffer; from tissue; host or cells: ipsilateral brain hemisphere lysate of CCI or sham mice
Excerpt: as §1, §2, §3

T4 sequence (P63017 whole entry): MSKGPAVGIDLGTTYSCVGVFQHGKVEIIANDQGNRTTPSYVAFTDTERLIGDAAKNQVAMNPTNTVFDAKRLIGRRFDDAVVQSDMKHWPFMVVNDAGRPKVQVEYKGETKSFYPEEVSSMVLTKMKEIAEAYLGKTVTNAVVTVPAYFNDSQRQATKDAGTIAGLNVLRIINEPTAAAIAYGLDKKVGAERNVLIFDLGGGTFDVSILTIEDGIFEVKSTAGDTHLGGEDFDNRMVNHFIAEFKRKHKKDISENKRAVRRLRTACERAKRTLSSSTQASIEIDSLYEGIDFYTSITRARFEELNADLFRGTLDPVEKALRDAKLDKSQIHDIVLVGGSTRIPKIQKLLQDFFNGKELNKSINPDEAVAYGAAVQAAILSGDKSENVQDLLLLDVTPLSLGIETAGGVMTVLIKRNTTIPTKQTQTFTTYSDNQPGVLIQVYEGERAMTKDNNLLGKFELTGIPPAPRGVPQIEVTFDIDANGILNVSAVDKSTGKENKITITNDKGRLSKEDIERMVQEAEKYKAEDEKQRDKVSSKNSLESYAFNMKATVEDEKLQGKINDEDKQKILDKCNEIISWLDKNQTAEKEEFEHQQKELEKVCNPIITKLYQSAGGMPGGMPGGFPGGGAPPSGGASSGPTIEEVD
T1 sequence (Q9Z2I9 54-463): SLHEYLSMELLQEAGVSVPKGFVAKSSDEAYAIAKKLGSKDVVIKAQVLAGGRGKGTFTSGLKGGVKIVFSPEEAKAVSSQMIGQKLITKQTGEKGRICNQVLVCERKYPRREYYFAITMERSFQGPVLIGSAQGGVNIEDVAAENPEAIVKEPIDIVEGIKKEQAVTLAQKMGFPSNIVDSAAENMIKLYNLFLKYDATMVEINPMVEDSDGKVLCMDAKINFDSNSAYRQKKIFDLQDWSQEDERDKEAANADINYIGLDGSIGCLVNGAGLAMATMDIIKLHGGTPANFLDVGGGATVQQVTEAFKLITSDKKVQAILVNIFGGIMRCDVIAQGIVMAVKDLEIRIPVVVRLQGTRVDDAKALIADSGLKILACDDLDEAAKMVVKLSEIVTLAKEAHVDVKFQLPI
T1 sequence (Q9WUM5 35-346 partner): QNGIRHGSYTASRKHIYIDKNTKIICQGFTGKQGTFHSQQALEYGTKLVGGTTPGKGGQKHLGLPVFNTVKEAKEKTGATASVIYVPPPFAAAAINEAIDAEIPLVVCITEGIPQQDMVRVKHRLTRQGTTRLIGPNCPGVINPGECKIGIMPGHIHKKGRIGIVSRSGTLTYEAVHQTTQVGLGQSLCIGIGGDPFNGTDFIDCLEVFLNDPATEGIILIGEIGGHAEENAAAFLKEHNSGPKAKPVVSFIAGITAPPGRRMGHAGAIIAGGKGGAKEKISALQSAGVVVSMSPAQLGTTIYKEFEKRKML
T3 sequence (P20029 20-655): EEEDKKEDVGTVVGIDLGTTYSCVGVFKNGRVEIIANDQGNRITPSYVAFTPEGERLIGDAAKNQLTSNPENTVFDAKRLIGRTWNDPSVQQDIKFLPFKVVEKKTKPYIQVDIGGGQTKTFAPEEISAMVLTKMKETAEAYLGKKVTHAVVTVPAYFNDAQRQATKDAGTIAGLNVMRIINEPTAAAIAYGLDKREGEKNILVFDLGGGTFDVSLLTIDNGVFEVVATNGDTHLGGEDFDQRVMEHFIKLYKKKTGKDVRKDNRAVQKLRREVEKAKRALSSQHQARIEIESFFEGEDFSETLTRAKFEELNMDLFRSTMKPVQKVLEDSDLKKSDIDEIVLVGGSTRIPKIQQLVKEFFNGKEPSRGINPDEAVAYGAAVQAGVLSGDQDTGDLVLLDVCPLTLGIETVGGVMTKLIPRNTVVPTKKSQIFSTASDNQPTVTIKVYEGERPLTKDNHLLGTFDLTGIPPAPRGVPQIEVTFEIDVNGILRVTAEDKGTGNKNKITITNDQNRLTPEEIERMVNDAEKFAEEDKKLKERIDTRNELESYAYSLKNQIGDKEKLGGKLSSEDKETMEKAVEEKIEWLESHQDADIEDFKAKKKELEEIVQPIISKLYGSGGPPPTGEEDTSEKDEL

Sequence: GGDTFRDASQSMHF [dAb-CDR3, reference compound]
bioreactivity of control HCDR3 constructs on injured neural tissue (CCI injury sections): no detectable bioreactivity

Sequence: GPLDGKEEELRF [SP-CDR3, reference compound]
bioreactivity of control HCDR3 constructs on injured neural tissue (CCI injury sections): no detectable bioreactivity

Sequence: RLVRESSQEHTLSS [CH1, 5, chronic injury]
bioreactivity of chronic injury targeting HCDR3 constructs (CCI injury sections): negligible bioreactivity

# Peptides [1]: 4
# Peptides [2]: 3
Sequence: SLYGSSRHTAPISF (linker (positions not given here) via bromoacetamide scaffold; not fully specified; reading uncertain; also: cyclized on bromoacetamide scaffold with biotin, sites not given here) [A2, 2, acute stage; peptide cyclized on bromoacetamide scaffold containing biotin]
immunoprecipitation eluate separated by SDS-PAGE (tissue lysates): isolated proteins unique to the injury condition
sensitivity and affinity to the peri-injury region (CCI injury sections; 1 day post-injury compared to sham, subacute, and chronic tissue sections): high sensitivity and affinity
bioreactivity determined by the fluorescence on 1 dpi tissue (CCI injury sections; in comparison to sham (p=0.0120) and 7 days post-injury tissue (p=0.0221)): significant bioreactivity
bioreactivity, 1 days post-injury versus 21 days post injury tissue (CCI injury sections; p=0.0658): No significant differences

Sequence: TAERDARTFQY (linker (positions not given here) via bromoacetamide scaffold; not fully specified; reading uncertain; also: cyclized on bromoacetamide scaffold with biotin, sites not given here) [A1, 1, acute stage; peptide cyclized on bromoacetamide scaffold containing biotin]
IHC signal on injured tissue (CCI injury sections; fixed mouse brain tissue at 1 dpi): no detectable signal; also recorded: did not show detectable bioreactivity

Sequence: TDCQETPYELKS [CH2, 6, chronic injury]
bioreactivity of chronic injury targeting HCDR3 constructs (CCI injury sections): non-specific staining

# Peptides [3]: 6
# Peptides [4]: 6
Sequence: TDLAVAHPVRY (linker (positions not given here) via bromoacetamide scaffold; not fully specified; reading uncertain; also: cyclized on bromoacetamide scaffold with biotin, sites not given here) [SA1, 3, subacute stage; peptide cyclized on bromoacetamide scaffold containing biotin]
immunoprecipitation eluate separated by SDS-PAGE (tissue lysates): isolated proteins unique to the injury condition
stain in the peri-injury region of injured tissue (CCI injury sections; 7 days post-injury tissue): Positive stain; also recorded: positively binding
bioreactivity, 7 days post-injury versus 1 days post-injury or 21 days post-injury tissue (CCI injury sections; p=0.0993 (1 dpi), p=0.0780 (21 dpi)): No significant differences
localization of stain in sham brain sections (CCI injury sections; sham brain sections, p=0.0079 versus 7 days post-injury): not observed

Sequence: TGHEGENEMAS [HE-CDR3, reference compound]
bioreactivity of control HCDR3 constructs on injured neural tissue (CCI injury sections): no detectable bioreactivity
